Experimental data published in ChEMBL document CHEMBL5344410, “Design, development and evaluation of a prodrug-type TrkA-selective inhibitor with antinociceptive effects in vivo” (Eur J Med Chem, 2023).
One block for each molecule: values may come before it. The source made the active and inactive calls. The rule behind the calls is not given here.

Legend:
[1] = biological target: NT-3 growth factor receptor (Homo sapiens, UniProt Q16288); experiment: Inhibition of TRKC (unknown origin) using Kinase substrate 22 pre-incubated with compound for 10 mins followed by substrate and ATP addition measured after 30 mins by mobility shift assay based caliper reader analysis
Sequence of NT-3 growth factor receptor (Q16288 whole entry): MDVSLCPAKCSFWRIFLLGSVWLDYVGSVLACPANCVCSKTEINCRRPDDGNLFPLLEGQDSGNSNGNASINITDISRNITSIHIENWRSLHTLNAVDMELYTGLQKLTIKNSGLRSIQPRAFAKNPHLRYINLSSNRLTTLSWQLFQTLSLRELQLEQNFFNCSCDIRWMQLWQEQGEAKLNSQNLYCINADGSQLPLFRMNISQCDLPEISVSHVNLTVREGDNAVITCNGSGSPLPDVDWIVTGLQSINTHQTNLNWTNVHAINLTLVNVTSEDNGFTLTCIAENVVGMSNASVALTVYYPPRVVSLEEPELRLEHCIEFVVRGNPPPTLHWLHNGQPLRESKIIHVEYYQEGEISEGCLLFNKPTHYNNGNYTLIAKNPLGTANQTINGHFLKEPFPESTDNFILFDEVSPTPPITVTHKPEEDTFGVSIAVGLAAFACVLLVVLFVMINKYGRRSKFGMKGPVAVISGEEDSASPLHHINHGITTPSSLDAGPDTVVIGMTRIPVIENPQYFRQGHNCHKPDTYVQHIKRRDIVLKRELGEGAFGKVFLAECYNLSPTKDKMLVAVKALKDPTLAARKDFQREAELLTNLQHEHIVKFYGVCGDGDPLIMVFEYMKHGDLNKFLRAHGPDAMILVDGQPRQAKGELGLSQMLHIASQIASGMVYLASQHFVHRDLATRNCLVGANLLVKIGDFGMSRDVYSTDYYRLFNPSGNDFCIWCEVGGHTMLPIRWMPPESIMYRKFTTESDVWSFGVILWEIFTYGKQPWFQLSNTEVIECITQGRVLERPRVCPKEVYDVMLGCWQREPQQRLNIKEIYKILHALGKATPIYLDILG

[2] = biological target: T1, High affinity nerve growth factor receptor (Homo sapiens, UniProt P04629); experiment: Inhibition of TRKA (unknown origin) using Kinase substrate 22 pre-incubated with compound for 10 mins followed by substrate and ATP addition measured after 30 mins by mobility shift assay based caliper reader analysis
Target sequence in this assay (P04629 whole entry): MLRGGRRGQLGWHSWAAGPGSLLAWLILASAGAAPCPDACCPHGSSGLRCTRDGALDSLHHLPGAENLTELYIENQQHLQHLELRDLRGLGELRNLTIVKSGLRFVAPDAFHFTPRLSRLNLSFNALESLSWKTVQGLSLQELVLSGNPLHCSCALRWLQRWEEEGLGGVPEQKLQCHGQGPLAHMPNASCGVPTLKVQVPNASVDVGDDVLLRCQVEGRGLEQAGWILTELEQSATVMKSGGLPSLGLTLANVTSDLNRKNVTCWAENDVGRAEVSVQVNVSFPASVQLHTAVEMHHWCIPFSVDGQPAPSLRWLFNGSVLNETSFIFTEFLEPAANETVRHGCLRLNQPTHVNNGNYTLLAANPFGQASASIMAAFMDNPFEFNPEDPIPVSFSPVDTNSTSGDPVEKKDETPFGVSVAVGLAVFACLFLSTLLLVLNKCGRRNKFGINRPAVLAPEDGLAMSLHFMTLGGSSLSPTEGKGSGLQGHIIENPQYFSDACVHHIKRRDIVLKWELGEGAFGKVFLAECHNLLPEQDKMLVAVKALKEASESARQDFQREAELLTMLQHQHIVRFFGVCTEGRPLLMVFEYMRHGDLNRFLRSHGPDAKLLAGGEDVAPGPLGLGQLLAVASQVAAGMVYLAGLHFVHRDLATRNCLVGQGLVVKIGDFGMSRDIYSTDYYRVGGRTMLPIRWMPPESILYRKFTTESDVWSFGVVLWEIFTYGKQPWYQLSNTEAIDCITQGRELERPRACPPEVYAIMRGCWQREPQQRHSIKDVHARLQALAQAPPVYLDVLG

[3] = biological target: T1, High affinity nerve growth factor receptor; experiment: Inhibition of human 6-His tagged TRKA expressed in Sf9 insect cells incubated for 2 hrs in presence of ATP by LanthaScreen based FRET assay relative to control; details: concentration not given here
Target sequence in this assay (P04629 33-796 limits assumed): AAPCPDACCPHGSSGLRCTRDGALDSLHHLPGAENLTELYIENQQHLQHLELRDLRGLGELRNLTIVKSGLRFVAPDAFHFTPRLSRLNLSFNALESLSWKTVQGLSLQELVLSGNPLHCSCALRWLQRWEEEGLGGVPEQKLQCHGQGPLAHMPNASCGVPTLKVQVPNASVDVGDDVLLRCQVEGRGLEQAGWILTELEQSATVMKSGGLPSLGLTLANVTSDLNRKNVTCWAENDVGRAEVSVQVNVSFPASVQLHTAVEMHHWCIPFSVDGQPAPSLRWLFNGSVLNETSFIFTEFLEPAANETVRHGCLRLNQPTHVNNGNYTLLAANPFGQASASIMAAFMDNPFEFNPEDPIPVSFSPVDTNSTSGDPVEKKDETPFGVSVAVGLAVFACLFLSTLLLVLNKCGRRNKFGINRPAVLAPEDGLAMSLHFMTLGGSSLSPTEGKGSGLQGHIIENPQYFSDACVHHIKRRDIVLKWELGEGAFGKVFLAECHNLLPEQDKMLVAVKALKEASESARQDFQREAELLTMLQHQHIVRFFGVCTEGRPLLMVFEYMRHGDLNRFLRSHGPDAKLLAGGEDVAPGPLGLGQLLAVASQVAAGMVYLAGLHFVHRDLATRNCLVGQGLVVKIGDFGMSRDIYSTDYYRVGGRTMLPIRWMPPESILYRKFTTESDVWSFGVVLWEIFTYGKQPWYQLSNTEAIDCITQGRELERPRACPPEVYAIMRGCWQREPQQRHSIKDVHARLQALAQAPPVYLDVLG

[4] = biological target: BDNF/NT-3 growth factors receptor (Homo sapiens, UniProt Q16620); experiment: Inhibition of TRKB (unknown origin) using Kinase substrate 22 pre-incubated with compound for 10 mins followed by substrate and ATP addition measured after 30 mins by mobility shift assay based caliper reader analysis
Sequence of BDNF/NT-3 growth factors receptor (Q16620 whole entry): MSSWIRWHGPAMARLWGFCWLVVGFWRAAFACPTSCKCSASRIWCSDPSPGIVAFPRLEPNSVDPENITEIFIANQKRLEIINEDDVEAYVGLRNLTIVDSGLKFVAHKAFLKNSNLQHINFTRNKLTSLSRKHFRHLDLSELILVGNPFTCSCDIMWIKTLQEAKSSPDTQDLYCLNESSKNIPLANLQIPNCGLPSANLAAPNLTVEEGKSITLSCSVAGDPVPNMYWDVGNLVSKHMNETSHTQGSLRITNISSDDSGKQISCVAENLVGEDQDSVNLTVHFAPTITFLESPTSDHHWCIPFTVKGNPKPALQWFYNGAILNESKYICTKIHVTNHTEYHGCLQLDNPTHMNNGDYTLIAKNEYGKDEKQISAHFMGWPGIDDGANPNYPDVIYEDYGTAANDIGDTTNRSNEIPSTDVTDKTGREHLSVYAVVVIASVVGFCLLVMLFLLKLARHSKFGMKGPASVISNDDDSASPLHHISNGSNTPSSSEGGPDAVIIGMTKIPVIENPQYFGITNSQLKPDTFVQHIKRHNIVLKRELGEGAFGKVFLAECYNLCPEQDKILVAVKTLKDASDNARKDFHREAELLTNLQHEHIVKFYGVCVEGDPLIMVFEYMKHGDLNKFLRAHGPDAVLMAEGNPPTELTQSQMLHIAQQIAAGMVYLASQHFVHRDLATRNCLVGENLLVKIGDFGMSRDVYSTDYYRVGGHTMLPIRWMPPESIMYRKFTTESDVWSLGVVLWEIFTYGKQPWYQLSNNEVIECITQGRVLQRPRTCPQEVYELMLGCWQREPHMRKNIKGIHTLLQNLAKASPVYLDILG

[5] = biological target: T1, High affinity nerve growth factor receptor; experiment: Inhibition of human 6-His tagged TRKA expressed in Sf9 insect cells incubated for 2 hrs in presence of ATP by LanthaScreen based FRET assay
Target sequence in this assay (P04629 whole entry): as the sequence (P04629 whole entry) above

Mus musculus [6] = experiment: Antinociceptive activity in Kunming mouse assessed as reduction in nociceptive response at 100 mg/kg,IG administration and measured for 1 to 6 hrs by hot plate test; assay type: functional, organism-based; details: time 1-6 hrs
Mus musculus [7] = experiment: Antinociceptive activity in Kunming mouse assessed as reduction in nociceptive response at 15 mg/kg,IG administration and measured after 1 hr by hot plate test; assay type: functional, organism-based
[8] = Drug metabolism in mouse hepatocyte assessed as 5-(3-(1-Methyl-1H-pyrazol-3-y1)-4-(trifluoromethyl)benzamido)-6-phenybridirt-3-yldihydrogen phosphate metabolite formation at 2 uM incubated for 30 mins by LC-MS/MS analysis; assay type: ADME, cell-based; details: hepatocytes, 0.5 h
Mus musculus [9] = experiment: Antinociceptive activity in Kunming mouse assessed as reduction in nociceptive response at 40 mg/kg,IG administration and measured after 1 hr by hot plate test; assay type: functional; design: scale not given: the % may be the effect or the level left
Mus musculus [10] = experiment: Antinociceptive activity in Kunming mouse assessed as reduction in nociceptive response at 8 mg/kg,IG administrated with TRKA activator, Amitriptyline and measured at 3 hrs by hot plate test; assay type: functional, organism-based
[11] = Drug uptake in Kunming mouse blood at 15 mg/kg,IG administration measured after 30 mins by LC-MS/MS analysis; assay type: ADME, organism-based; details: in vivo, po, 0.5 h
[12] = Drug metabolism in mouse hepatocyte assessed as 5-(3-(1-Methy1-1H-pyrazol-3-y1)-4-(trifluoromethyl)benzamido)-6-phenylnicotinic acid metabolite formation at 2 uM incubated for 30 mins by LC-MS/MS analysis; assay type: ADME, cell-based; details: hepatocytes, 0.5 h
Mus musculus [13] = experiment: Antinociceptive activity in Kunming mouse assessed as reduction in nociceptive response at 40 mg/kg,IG administration and measured at 3 hrs by hot plate test; assay type: functional, organism-based
Mus musculus [14] = experiment: Antinociceptive activity against formalin-induced pain in C57BL/6N mouse assessed as reduction in nociceptive response in phase I at IG administration for 1 hr followed by formalin challenge; assay type: functional, organism-based
Mus musculus [15] = experiment: Antinociceptive activity in ATP-induced Kunming mouse assessed as reduction in nociceptive response at 40 mg/kg,IG administration and measured after 1 hr by hot plate test; assay type: functional, organism-based
[16] = Drug metabolism in mouse hepatocyte assessed as N-(5-Hydroxy-2-phenylpyridin-3-y1)-3-(1-methyl-1H-pyrazol-3-y1)-4-(trifluoromethyl) benzamide metabolite formation at 2 uM incubated for 30 mins by LC-MS/MS analysis; assay type: ADME, cell-based; details: hepatocytes, 0.5 h
Mus musculus [17] = experiment: Antinociceptive activity against formalin-induced pain in C57BL/6N mouse assessed as reduction in nociceptive response in phase II at IG administration for 1 hr followed by formalin challenge; assay type: functional, organism-based
Mus musculus [18] = experiment: Antinociceptive activity in Kunming mouse assessed as reduction in nociceptive response by measuring effective dose at IG administration measured after 3 hr by hot plate test; assay type: functional; details: po
[19] = Drug metabolism in Kunming mouse blood assessed as 5-(3-(1-Methy1-1H-pyrazol3-yl)-4-(trifluoromethyl)benzamido)-6-phenylnicotinic acid metabolite formation at 15 mg/kg,IG administration measured after 1 hr by LC-MS/MS analysis; assay type: ADME, organism-based; details: in vivo, po
Mus musculus [20] = experiment: Antinociceptive activity in Kunming mouse assessed as reduction in nociceptive response at 40 mg/kg,IG administration and measured for 1 to 6 hrs by hot plate test; assay type: functional, organism-based; details: time 1-6 hrs

SMILES: Cc1ncc(-c2ccccc2)c(NC(=O)NC2c3ccccc3-c3ccccc32)n1
- IC50 [1]: 25000 nM
- IC50 [2]: 99 nM
- inhibition [3]: > 70%
- IC50 [4]: > 81000 nM
- IC50 [5]: 99 nM

SMILES: CCOc1nn(-c2ccccc2)c(NC(=O)N[C@H]2CN(CCOC)C[C@@H]2c2ccc(F)c(F)c2)c1C
- IC50 [1]: 2480 nM
- IC50 [2]: 2.7 nM
- IC50 [4]: 1300 nM

SMILES: CC(C)Cc1ccc(C(C)C(=O)O)cc1 (centres undefined)
- Activity (Mus musculus [6]): Active

SMILES: CC(=O)NCc1ncc(NC(=O)c2ccc(C(F)(F)F)c(-c3cn(C)cn3)c2)c(-c2ccccc2)n1
- IC50 [1]: 760 nM
- IC50 [2]: 4 nM

The next lines start with results.

- Drug metabolism [8]: Metabolite_Notdetected
- Drug uptake [11]: Not Active
- Drug metabolism [12]: Metabolite_Detected
- Drug metabolism [16]: Metabolite_Detected
- Drug metabolism [19]: Metabolite_Detected
SMILES: CC(=O)OCOC(=O)c1cnc(-c2ccccc2)c(NC(=O)c2ccc(C(F)(F)F)c(-c3ccn(C)n3)c2)c1
- Activity (Mus musculus [7]): Active
- Activity (Mus musculus [9]): 20%
- Activity (Mus musculus [10]): inactive
- Activity (Mus musculus [13]): Active
- Activity (Mus musculus [14]): Dose-Dependent Effect
- Activity (Mus musculus [15]): inactive
- Activity (Mus musculus [17]): Dose-Dependent Effect
- ED50 (Mus musculus [18]): 7.84 mg/kg

- IC50 [1]: > 500000 nM
- IC50 [2]: 70.4 nM
- IC50 [4]: > 500000 nM
SMILES: Cn1ccc(-c2cc(C(=O)Nc3cc(O)cnc3-c3ccccc3)ccc2C(F)(F)F)n1

- IC50 [1]: 20200 nM
- IC50 [2]: 22.4 nM
- IC50 [4]: 190000 nM
SMILES: Cn1ccc(-c2cc(C(=O)Nc3cc(C(=O)O)cnc3-c3ccccc3)ccc2C(F)(F)F)n1

- Drug metabolism [8]: Metabolite_Notdetected
- Drug metabolism [12]: Metabolite_Detected
- Drug metabolism [16]: Metabolite_Detected
SMILES: COC(=O)[C@H](C)NP(=O)(Oc1ccccc1)Oc1cnc(-c2ccccc2)c(NC(=O)c2ccc(C(F)(F)F)c(-c3ccn(C)n3)c2)c1 (some centres undefined)
- Activity (Mus musculus [9]): 20%
- Activity (Mus musculus [20]): Active
- Activity (Mus musculus [15]): inactive

- IC50 [1]: > 500000 nM
- IC50 [2]: 798 nM
- IC50 [4]: > 500000 nM
SMILES: Cn1ccc(-c2cc(C(=O)Nc3cc(OP(=O)(O)O)cnc3-c3ccccc3)ccc2C(F)(F)F)n1
